Earlier results, collected in patent US9561285B2, “Carrier-linked carbamate prodrug linkers” (Ascendis Pharma AS, priority 2010, dated 2017).

Conditions: buffer, pH 7

SMILES: O=C(Nc1ccccc1)Oc1ccc([N+](=O)[O-])cc1 [p-nitrophenyl-O—CO—NH-phenyl]
- half-life of hydrolysis: 26 s
